Data taken from ChEMBL document CHEMBL1799986, “In vitro inhibition of α-carbonic anhydrase isozymes by some phenolic compounds” (Bioorg Med Chem Lett, 2011).
pKi: −log10 of the molar value.

Assays:
Carbonic anhydrase 6 = Carbonic anhydrase 6 (Homo sapiens, UniProt P23280); test: Inhibition of human CA6 using 4-nitrophenylacetate substrate by esterase assay
Carbonic anhydrase = target: T1, Carbonic anhydrase (Dicentrarchus labrax, UniProt Q2PCB5); test: Inhibition of Dicentrarchus labrax CA using 4-nitrophenylacetate substrate by esterase assay
T1 sequence (Q2PCB5 whole entry): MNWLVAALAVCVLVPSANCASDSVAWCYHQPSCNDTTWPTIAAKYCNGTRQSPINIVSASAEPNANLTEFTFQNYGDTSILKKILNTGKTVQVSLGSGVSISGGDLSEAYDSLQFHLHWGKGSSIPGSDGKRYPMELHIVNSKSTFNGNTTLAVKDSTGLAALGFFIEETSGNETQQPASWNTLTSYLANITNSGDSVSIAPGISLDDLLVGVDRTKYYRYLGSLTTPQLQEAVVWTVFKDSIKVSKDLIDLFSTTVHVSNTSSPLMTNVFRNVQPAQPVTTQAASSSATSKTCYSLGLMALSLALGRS

Carbonic anhydrase 1 = Carbonic anhydrase 1 (Homo sapiens, UniProt P00915); test: Inhibition of human CA1 using 4-nitrophenylacetate substrate by esterase assay
Chain of Carbonic anhydrase 1 (P00915 whole entry): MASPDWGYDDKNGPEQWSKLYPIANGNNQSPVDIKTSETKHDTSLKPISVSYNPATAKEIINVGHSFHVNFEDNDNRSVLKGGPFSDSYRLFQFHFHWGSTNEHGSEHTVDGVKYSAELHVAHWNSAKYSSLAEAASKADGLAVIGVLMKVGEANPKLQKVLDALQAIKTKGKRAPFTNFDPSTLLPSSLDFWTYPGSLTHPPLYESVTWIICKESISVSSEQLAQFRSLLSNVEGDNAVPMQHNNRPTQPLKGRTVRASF

Carbonic anhydrase 2 = Carbonic anhydrase 2 (Homo sapiens, UniProt P00918); test: Inhibition of human CA2 using 4-nitrophenylacetate substrate by esterase assay

Chain of Carbonic anhydrase 6 (P23280 whole entry): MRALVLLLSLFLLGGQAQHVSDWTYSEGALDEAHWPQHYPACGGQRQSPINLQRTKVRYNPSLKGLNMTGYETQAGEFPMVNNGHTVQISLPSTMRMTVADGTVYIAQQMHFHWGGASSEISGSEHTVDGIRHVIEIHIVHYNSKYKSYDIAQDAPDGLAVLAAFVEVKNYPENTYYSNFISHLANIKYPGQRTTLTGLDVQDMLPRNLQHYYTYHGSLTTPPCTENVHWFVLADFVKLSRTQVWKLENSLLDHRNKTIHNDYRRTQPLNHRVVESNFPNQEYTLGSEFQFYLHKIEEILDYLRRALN

With `O=C(O)c1ccc(O)c(O)c1` [PROTOCATECHUIC ACID] as the compound, how does the pKi (Carbonic anhydrase 6) read?
The pKi was 5.33.

And the pKi (Carbonic anhydrase)?
The pKi was 5.49.

How did the pKi (Carbonic anhydrase) turn out when `O=C(O)c1cc(O)c(O)c(O)c1` [GALLIC ACID] was run?
Its pKi is 5.38.

How did the pKi (Carbonic anhydrase) turn out when `O=C(O)c1ccccc1O` [SALICYLIC ACID] was run?
Its pKi is 3.49.

With `Oc1ccccc1` [PHENOL] as the compound, how does the pKi (Carbonic anhydrase) read?
The pKi was 4.86.

With `O=C(O)c1ccc(O)cc1` [PARABEN] as the compound, how does the pKi (Carbonic anhydrase) read?
The pKi was 5.07.

`Oc1cccc(O)c1O` [PYROGALLOL] was tested. Which pKi (Carbonic anhydrase 1) did it give?
The pKi was 5.13.

And the pKi (Carbonic anhydrase 2)?
The pKi was 6.27.

What about the pKi (Carbonic anhydrase 6) of the same compound?
Its pKi is 6.28.

And the pKi (Carbonic anhydrase)?
Its pKi is 5.36.

How did the pKi (Carbonic anhydrase 1) turn out when `O=C(OC[C@H]1O[C@@H](OC(=O)c2cc(O)c(O)c(OC(=O)c3cc(O)c(O)c(O)c3)c2)[C@H](OC(=O)c2cc(O)c(O)c(OC(=O)c3cc(O)c(O)c(O)c3)c2)[C@@H](OC(=O)c2cc(O)c(O)c(OC(=O)c3cc(O)c(O)c(O)c3)c2)[C@@H]1OC(=O)c1cc(O)c(O)c(OC(=O)c2cc(O)c(O)c(O)c2)c1)c1cc(O)c(O)c(OC(=O)c2cc(O)c(O)c(O)c2)c1` [TANNIC ACID] was run?
The pKi was 4.12.

And the pKi (Carbonic anhydrase 2)?
The pKi was 4.48.

And the pKi (Carbonic anhydrase 6)?
Its pKi is 4.75.

And the pKi (Carbonic anhydrase)?
The pKi was 5.03.

With `Oc1cccc(O)c1` [RESORCINOL] as the compound, how does the pKi (Carbonic anhydrase) read?
Its pKi is 5.19.

How did the pKi (Carbonic anhydrase) turn out when `O=C(O)c1cc(O)cc(O)c1` [3,5-DIHYDROXYBENZOIC ACID] was run?
Its pKi is 5.67.

What does the source list for `O=C(O)c1cccc(O)c1` [3-HYDROXYBENZOIC ACID]?
pKi (Carbonic anhydrase 6): 5.50; pKi (Carbonic anhydrase): 4.01

With `Oc1ccccc1O` [CATECHOL] as the compound, how does the pKi (Carbonic anhydrase) read?
The pKi was 4.83.

How did the pKi (Carbonic anhydrase) turn out when `Oc1ccc(O)cc1` [HYDROQUINONE] was run?
The pKi was 5.23.
